Experimental data reported in PMC5843546 (Nature, 2018).

Assays:
[1] = molecular target: T1, DRD2-T4L(Sf9) I122^3.40A/L375^6.37A/L379^6.41A (Homo sapiens, UniProt P14416, I122A/L375A/L379A); experiment: biochemical
T1 sequence (P14416 with tags, fused parts or gaps I122A/L375A/L379A): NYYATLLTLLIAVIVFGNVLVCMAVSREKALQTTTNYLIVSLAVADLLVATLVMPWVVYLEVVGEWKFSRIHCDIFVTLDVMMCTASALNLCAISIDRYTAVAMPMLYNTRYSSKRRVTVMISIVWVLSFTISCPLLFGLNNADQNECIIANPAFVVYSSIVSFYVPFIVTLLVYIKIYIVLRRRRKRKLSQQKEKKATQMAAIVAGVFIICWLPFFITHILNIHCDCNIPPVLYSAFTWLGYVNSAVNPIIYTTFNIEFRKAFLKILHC

DRD2 wild-type = DRD2 wild-type (Homo sapiens, UniProt P14416); experiment: biochemical
DRD2 F110^3.28A = DRD2 F110^3.28A (Homo sapiens, UniProt P14416, F110A); conditions: DRD2 F110^3.28A vs wild-type
DRD2 W100^EL1A = DRD2 W100^EL1A (Homo sapiens, UniProt P14416, W100A); conditions: DRD2 W100^EL1A vs wild-type

ΔpKd (mutant-WT) (DRD2 F110^3.28A) | ΔpKd (mutant-WT) (DRD2 W100^EL1A) | SMILES | Ki ([1]; Ki) [nM] | Ki ([1]; pKi) [nM] | Ki (DRD2 wild-type; Ki) [nM] | Ki (DRD2 wild-type; pKi) [nM]
 |  | O=c1[nH]c2cccc(N3CCN(Cc4cccc(-c5ccccc5)c4)CC3)c2o1 [Bifeprunox] | 0.57 | 0.562 | 1.04 | 0.302
0.08 | −0.98 | CNc1cc(OC)c(C(=O)NC2CCN(Cc3ccccc3)C2C)cc1Cl (stereo not drawn) [Nemonapride, nemonapride] |  |  |  | 
